Measured values taken from patent US6737383B1, “Herbicidal oxadiazolidines” (priority 1999, dated 2004).

Key:
wheat = assay: Test B pre/postemergence wheat; assay type: in vivo, Triticum aestivum
In short: (§1)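 Herbicidal effect was estimated by eye on a ten-point control scale after plants spent twelve to sixteen days in a greenhouse following soil or foliar treatment. Foliar sprays targeted plants at one to four leaves; all doses were formulated in a non-phytotoxic solvent with surfactant.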

pigweed = assay: Test B pre/postemergence pigweed; assay type: in vivo, Amaranthus retroflexus
In short: as §1

cocklebur = assay: Test B pre/postemergence cocklebur; assay type: in vivo, Xanthium strumarium
In short: as §1

wild oat = assay: Test B pre/postemergence wild oat; assay type: in vivo, Avena fatua
In short: as §1

sugar beet = assay: Test B pre/postemergence sugar beet; assay type: in vivo, Beta vulgaris
In short: as §1

surinam grass = assay: Test B pre/postemergence surinam grass; assay type: in vivo, Brachiaria decumbens
In short: as §1

smallflower flatsedge = assay: Test B flood test smallflower flatsedge; assay type: in vivo, Cyperus difformis
In short: (§2)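 Each value is a visual injury score relative to controls, with 10 meaning complete control and 0 no effect. Evaluation took place twelve to sixteen days after the 2-leaf-stage plants were treated and kept in the greenhouse.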

bedstraw = assay: Test B pre/postemergence bedstraw; assay type: in vivo, Galium aparine; settings: Postemergence, Rate 500 g/ha; scale of 0 to 10 where 0 is no effect and 10 is complete control
In short: as §1

purple nutsedge = assay: Test B pre/postemergence purple nutsedge; assay type: in vivo, Cyperus rotundus
In short: as §1

crabgrass = assay: Test B pre/postemergence crabgrass; assay type: in vivo, Digitaria sanguinalis
In short: as §1

blackgrass = assay: Test B pre/postemergence blackgrass; assay type: in vivo, Alopecurus myosuroides
In short: as §1

soybean = assay: Test B pre/postemergence soybean; assay type: in vivo, Glycine max
In short: as §1

rape = assay: Test B pre/postemergence rape; assay type: in vivo, Brassica napus
In short: as §1

corn = assay: Test B pre/postemergence corn; assay type: in vivo, Zea mays
In short: as §1

velvetleaf = assay: Test B pre/postemergence velvetleaf; assay type: in vivo, Abutilon theophrasti
In short: as §1

bamyardgrass = assay: Test B flood test barnyardgrass; assay type: in vivo, Echinochloa crus-galli
In short: as §2

[1] = Postemergence, Rate 250 g/ha, scale 0 to 10, 0 is no effect, 10 is complete control
[2] = Postemergence, Rate 500 g/ha, scale of 0 to 10 where 0 is no effect and 10 is complete control
[3] = Preemergence, Rate 62 g/ha, scale 0 to 10 (0 no effect, 10 complete control)
[4] = Preemergence, Rate 125 g/ha, scale of 0 to 10 where 0 is no effect and 10 is complete control
[5] = Preemergence, Rate 250 g/ha, scale of 0 to 10 where 0 is no effect and 10 is complete control
[6] = Preemergence, Rate 500 g/ha, scale of 0 to 10 where 0 is no effect and 10 is complete control
[7] = Rate 62 g/ha, Postemergence, scale of 0 to 10 where 0 is no effect and 10 is complete control
[8] = Postemergence, Rate 125 g/ha, scale 0 to 10, 0 is no effect, 10 is complete control
[9] = Rate 62 g/ha, flood test species, Pre-emergence, visual evaluation after twelve to sixteen days
[10] = Rate 125 g/ha, under heading Pre-emergence, flood test species, visual evaluation after twelve to sixteen days
[11] = Rate 250 g/ha, Pre-emergence, flood-test species, scale 0 to 10, 0 is no effect, 10 is complete control
[12] = Rate 500 g/ha, Pre-emergence, flood test species, scale 0 to 10 (0 no effect, 10 complete control)

CC(C)N(C(=O)n1oc(=O)[nH]c1=O)c1ccc(F)cc1F [Compound 391]
0: Plant response rating, Wheat (wheat; [1]) | Wheat plant response rating (wheat; [2]) | Plant response rating, Wheat (wheat; [3]) | Plant response rating, Wheat (wheat; [4]) | Wheat plant response rating (wheat; [5]) | Wheat plant response rating (wheat; [6]) | Wheat plant response rating (wheat; [7]) | Plant response rating, Redroot pigweed (pigweed; [1]) | Redroot pigweed plant response rating (pigweed; [2]) | Plant response rating, Redroot pigweed (pigweed; [3]) | Plant response rating, Redroot pigweed (pigweed; [4]) | Redroot pigweed plant response rating (pigweed; [5]) | Redroot pigweed plant response rating (pigweed; [6]) | Redroot pigweed plant response rating (pigweed; [7]) | Plant response rating, Cocklebur (cocklebur; [8]) | Plant response rating, Cocklebur (cocklebur; [1]) | Cocklebur plant response rating (cocklebur; [2]) | Plant response rating, Cocklebur (cocklebur; [3]) | Plant response rating, Cocklebur (cocklebur; [4]) | Cocklebur plant response rating (cocklebur; [5]) | Cocklebur plant response rating (cocklebur; [6]) | Cocklebur plant response rating (cocklebur; [7]) | Plant response rating, Wild oats (wild oat; [1]) | Wild oats plant response rating (wild oat; [2]) | Plant response rating, Wild oats (wild oat; [3]) | Plant response rating, Wild oats (wild oat; [4]) | Wild oats plant response rating (wild oat; [5]) | Wild oats plant response rating (wild oat; [6]) | Wild oats plant response rating (wild oat; [7]) | Plant response rating, Sugarbeets (sugar beet; [1]) | Sugarbeets plant response rating (sugar beet; [2]) | Plant response rating, Sugarbeets (sugar beet; [3]) | Plant response rating, Sugarbeets (sugar beet; [4]) | Sugarbeets plant response rating (sugar beet; [5]) | Sugarbeets plant response rating (sugar beet; [6]) | Sugarbeets plant response rating (sugar beet; [7]) | Plant response rating, B. signalgrass (surinam grass; [8]) | Plant response rating, B. signalgrass (surinam grass; [1]) | B. signalgrass plant response rating (surinam grass; [2]) | Plant response rating, B. signalgrass (surinam grass; [3]) | Plant response rating, B. signalgrass (surinam grass; [4]) | B. signalgrass plant response rating (surinam grass; [5]) | B. signalgrass plant response rating (surinam grass; [6]) | B. signalgrass plant response rating (surinam grass; [7]) | Plant response rating, S. Flatsedge (0 to 10 scale, 0 is no effect, 10 is complete control) (smallflower flatsedge; [9]) | S. Flatsedge plant response rating (0 to 10 scale, 0 is no effect, 10 is complete control) (smallflower flatsedge; [10]) | S. Flatsedge plant response rating (smallflower flatsedge; [11]) | S. Flatsedge plant response rating (smallflower flatsedge; [12]) | Bedstraw plant response rating (bedstraw) | Plant response rating, Nutsedge (purple nutsedge; [1]) | Nutsedge plant response rating (purple nutsedge; [2]) | Plant response rating, Nutsedge (purple nutsedge; [3]) | Plant response rating, Nutsedge (purple nutsedge; [4]) | Nutsedge plant response rating (purple nutsedge; [5]) | Nutsedge plant response rating (purple nutsedge; [6]) | Nutsedge plant response rating (purple nutsedge; [7]) | Plant response rating, Crabgrass (crabgrass; [8]) | Plant response rating, Crabgrass (crabgrass; [1]) | Crabgrass plant response rating (crabgrass; [2]) | Plant response rating, Crabgrass (crabgrass; [3]) | Plant response rating, Crabgrass (crabgrass; [4]) | Crabgrass plant response rating (crabgrass; [5]) | Crabgrass plant response rating (crabgrass; [6]) | Crabgrass plant response rating (crabgrass; [7]) | Plant response rating, Blackgrass (blackgrass; [1]) | Blackgrass plant response rating (blackgrass; [2]) | Plant response rating, Blackgrass (blackgrass; [3]) | Plant response rating, Blackgrass (blackgrass; [4]) | Blackgrass plant response rating (blackgrass; [5]) | Blackgrass plant response rating (blackgrass; [6]) | Plant response rating, Soybean (soybean; [1]) | Soybean plant response rating (soybean; [2]) | Plant response rating, Soybean (soybean; [3]) | Plant response rating, Soybean (soybean; [4]) | Soybean plant response rating (soybean; [5]) | Soybean plant response rating (soybean; [6]) | Soybean plant response rating (soybean; [7]) | Plant response rating, Rape (rape; [1]) | Rape plant response rating (rape; [2]) | Plant response rating, Rape (rape; [3]) | Plant response rating, Rape (rape; [4]) | Rape plant response rating (rape; [5]) | Rape plant response rating (rape; [6]) | Rape plant response rating (rape; [7]) | Plant response rating, Corn (corn; [8]) | Plant response rating, Corn (corn; [1]) | Corn plant response rating (corn; [2]) | Plant response rating, Corn (corn; [3]) | Plant response rating, Corn (corn; [4]) | Corn plant response rating (corn; [5]) | Corn plant response rating (corn; [6]) | Corn plant response rating (corn; [7]) | Plant response rating, Velvetleaf (velvetleaf; [1]) | Velvetleaf plant response rating (velvetleaf; [2]) | Plant response rating, Velvetleaf (velvetleaf; [3]) | Plant response rating, Velvetleaf (velvetleaf; [4]) | Velvetleaf plant response rating (velvetleaf; [5]) | Velvetleaf plant response rating (velvetleaf; [6]) | Velvetleaf plant response rating (velvetleaf; [7]) | Plant response rating, Barnyardgrass (0 to 10 scale, 0 is no effect, 10 is complete control) (bamyardgrass; [9]) | Barnyardgrass plant response rating (0 to 10 scale, 0 is no effect, 10 is complete control) (bamyardgrass; [10]) | Barnyardgrass plant response rating (bamyardgrass; [11]) | Barnyardgrass plant response rating (bamyardgrass; [12])
